Assay results: patent US20080317857A1, “V-Atpase Inhibitors of Use in the Treatment of Septic Shock” (Brane Discovery S.r.l., priority 2005, published 2008)
Like-named read-outs stand apart in the source and are kept apart here. Values belong to the compound of their own block, whether it stands above or below them.

What was measured:
[1] = tested on: NADPH-oxidase activation (H2O2 release) in Monocytes; experiment: Respiratory burst (H2O2 assay) in monocytes; type: cell-based, human; conditions: for inhibition at 0.4 µM / inhibition at 1 µM / inhibition at 25 µM / inhibition at 50 µM / inhibition at 100 µM / inhibition at 0.0005 µM / inhibition at 0.001 µM: Homo sapiens, Monocyte; for inhibition at 0.4 µM: [cpd] 0.4 μM; for inhibition at 1 µM: [cpd] 1.0 μM; for respiratory burst / NADPH-oxidase activation induced by PMA in monocytes (in words): PMA 200 ng/ml; for inhibition at 25 µM: [cpd] 25 μM; for inhibition at 50 µM: [cpd] 50 μM; for inhibition at 100 µM: [cpd] 100 μM
Procedure: (§1) NADPH-oxidase activation was measured as induction of H2O2 release (derived from dismutation of O2^−) triggered in PMNs and monocytes by PMA (200 ng/ml). Briefly, PMNs and monocytes were pretreated at 37° C. for 30-60 min with test compound at different concentrations, and stimulated with phorbol 12-myristate 13-acetate (PMA, 200 ng/ml) dissolved in 0.5 ml of a standard reaction mixture. Release of H2O2 was evaluated in real time at time points of 5 min by using a microplate fluorescence reader (Perkin-Elmer). Results are expressed as nmoles of H2O2 released over time by 10^6 cells. Shown are dose-response curves of inhibitory effect on H2O2 release over 60 min.

V-ATPase = conditions: cited from earlier work; for inhibition of V-ATPase (in words): literature
rat ovariectomized model = conditions: cited from earlier work
[2] = tested on: NADPH-oxidase activation (H2O2 release) in PMNs; experiment: Respiratory burst (H2O2 assay) in PMNs; type: cell-based, human; conditions: for inhibition at 25 µM / inhibition at 50 µM / inhibition at 100 µM / inhibition at 0.0005 µM / inhibition at 0.001 µM: Homo sapiens, read-out: Inhibition of H2O2 release induced by PMA in PMNs (% PMA control); for inhibition at 25 µM: [cpd] 25 μM; for inhibition at 50 µM: [cpd] 50 μM; for inhibition at 100 µM: [cpd] 100 μM
Procedure: as §1

[3] = 0.5 h, 30 min, read-out: Inhibition of H2O2 release induced by PMA in Monocytes (% PMA control)
[4] = 40 min, 40 min, read-out: Inhibition of H2O2 release induced by PMA in Monocytes (% PMA control)
[5] = 50 min, 50 min, read-out: Inhibition of H2O2 release induced by PMA in Monocytes (% PMA control)

respiratory burst / NADPH-oxidase activation induced by PMA in monocytes (in words) [1]: had effect
Structure (SMILES): O=C(Nc1cccc2c1nc(C(F)(F)F)n2CC(=O)N1CCOCC1)c1c(Cl)cccc1Cl [FR-177995]
inhibition at 0.4 µM [1, 3]: 27.1%
inhibition at 1 µM [1, 3]: 21.3%
inhibition at 0.4 µM [1, 4]: 29%
inhibition at 1 µM [1, 4]: 6.3%
inhibition at 0.4 µM [1, 5]: 26.7%
inhibition at 1 µM [1, 5]: 5.5%
concentrations generally active in inhibiting V-ATPase (V-ATPase): 0.4 to 1 µM
anti-osteoporotic activity (rat ovariectomized model): high anti-osteoporotic activity

respiratory burst / NADPH-oxidase activation induced by PMA in PMNs (in words) ([2]; PMA 200 ng/ml): completely blocked
respiratory burst / NADPH-oxidase activation induced by PMA in monocytes (in words) [1]: completely blocked
Structure (SMILES): CCN1C(=O)C=CC1=O [NEM, N-ethylmaleimide]
inhibition at 25 µM ([2]; 0.5 h, 30 min): 100%
inhibition at 50 µM ([2]; 0.5 h, 30 min): 100%
inhibition at 100 µM ([2]; 0.5 h, 30 min): 100%
inhibition at 25 µM ([2]; 40 min, 40 min): 100%
inhibition at 50 µM ([2]; 40 min, 40 min): 100%
inhibition at 100 µM ([2]; 40 min, 40 min): 100%
inhibition at 25 µM ([2]; 50 min, 50 min): 100%
inhibition at 50 µM ([2]; 50 min, 50 min): 100%
inhibition at 100 µM ([2]; 50 min, 50 min): 100%
inhibition at 25 µM [1, 3]: 100%
inhibition at 50 µM [1, 3]: 100%
inhibition at 100 µM [1, 3]: 100%
inhibition at 25 µM [1, 4]: 100%
inhibition at 50 µM [1, 4]: 100%
inhibition at 100 µM [1, 4]: 100%
inhibition at 25 µM [1, 5]: 100%
inhibition at 50 µM [1, 5]: 100%
inhibition at 100 µM [1, 5]: 100%
concentrations generally active in inhibiting V-ATPase (V-ATPase): > 25 µM

Structure (SMILES): CO/C1=C\C(C)=C\[C@@H](C)[C@@H](O)[C@@H](C)C/C(C)=C/C=C/[C@H](OC)[C@@H]([C@@H](C)[C@@H](O)[C@H](C)[C@@]2(O)C[C@@H](O)[C@H](C)[C@@H](C(C)C)O2)OC1=O [Bafilomycin A1]
inhibition at 0.0005 µM ([2]; 0.5 h, [cpd] 0.0005 μM, 30 min): 7.1%
inhibition at 0.001 µM ([2]; 0.5 h, [cpd] 0.001 μM, 30 min): 26.4%
inhibition at 0.0005 µM ([2]; 40 min, [cpd] 0.0005 μM, 40 min): 9.8%
inhibition at 0.001 µM ([2]; 40 min, [cpd] 0.001 μM, 40 min): 27.2%
inhibition at 0.0005 µM ([2]; 50 min, [cpd] 0.0005 μM, 50 min): 9.3%
inhibition at 0.001 µM ([2]; 50 min, [cpd] 0.001 μM, 50 min): 29.9%
inhibition at 0.0005 µM ([1]; 0.5 h, [cpd] 0.0005 μM, 30 min, read-out: Inhibition of H2O2 release induced by PMA in Monocytes (% PMA control)): 22.1%
inhibition at 0.001 µM ([1]; 0.5 h, [cpd] 0.001 μM, 30 min, read-out: Inhibition of H2O2 release induced by PMA in Monocytes (% PMA control)): 30.8%
inhibition at 0.0005 µM ([1]; 40 min, [cpd] 0.0005 μM, 40 min, read-out: Inhibition of H2O2 release induced by PMA in Monocytes (% PMA control)): 28.2%
inhibition at 0.001 µM ([1]; 40 min, [cpd] 0.001 μM, 40 min, read-out: Inhibition of H2O2 release induced by PMA in Monocytes (% PMA control)): 37.2%
inhibition at 0.0005 µM ([1]; 50 min, [cpd] 0.0005 μM, 50 min, read-out: Inhibition of H2O2 release induced by PMA in Monocytes (% PMA control)): 32.4%
inhibition at 0.001 µM ([1]; 50 min, [cpd] 0.001 μM, 50 min, read-out: Inhibition of H2O2 release induced by PMA in Monocytes (% PMA control)): 47.9%
inhibition at 0.001 µM ([1]; 1 nM concentration, read-out: inhibition of the respiratory burst in monocytes): 48%
inhibition of V-ATPase (in words) (V-ATPase): very potent and highly specific inhibitors

Structure (SMILES): C/C=C/[C@H]1O[C@@](O)([C@@H](C)[C@H](O)[C@H](C)[C@H]2OC(=O)/C(OC)=C/C(C)=C/[C@@H](C)[C@@H](O)[C@@H](CC)[C@@H](O)[C@H](C)C/C(C)=C/C=C/[C@@H]2OC)C[C@@H](O[C@H]2C[C@@H](O)[C@H](OC(N)=O)[C@@H](C)O2)[C@@H]1C [Concanamycin A1, Concanamycin A]
inhibition of the release of oxygen radicals in PMNs ([2]; 10 nM concentration): 58%
Inhibition of H2O2 release induced by PMA in PMNs (% PMA control) ([2]; [cpd] 0.0005 μM, 30 min): 33.4%
Inhibition of H2O2 release induced by PMA in PMNs (% PMA control) ([2]; [cpd] 0.0005 μM, 40 min): 35.2%
Inhibition of H2O2 release induced by PMA in PMNs (% PMA control) ([2]; [cpd] 0.0005 μM, 50 min): 38.9%
Inhibition of H2O2 release induced by PMA in PMNs (% PMA control) ([2]; [cpd] 0.001 μM, 30 min): 36.2%
Inhibition of H2O2 release induced by PMA in PMNs (% PMA control) ([2]; [cpd] 0.001 μM, 40 min): 45.0%
Inhibition of H2O2 release induced by PMA in PMNs (% PMA control) ([2]; [cpd] 0.001 μM, 50 min): 56.4%
Inhibition of H2O2 release induced by PMA in PMNs (% PMA control) ([2]; [cpd] 0.010 μM, 30 min): 50.2%
Inhibition of H2O2 release induced by PMA in PMNs (% PMA control) ([2]; [cpd] 0.010 μM, 40 min): 58.3%
Inhibition of H2O2 release induced by PMA in PMNs (% PMA control) ([2]; [cpd] 0.010 μM, 50 min): 58.3%
inhibition of the release of oxygen radicals in monocytes ([1]; 10 nM concentration): 50%
Inhibition of H2O2 release induced by PMA in Monocytes (% PMA control) ([1]; [cpd] 0.0005 μM, 30 min): 17.0%
Inhibition of H2O2 release induced by PMA in Monocytes (% PMA control) ([1]; [cpd] 0.0005 μM, 40 min): 26.3%
Inhibition of H2O2 release induced by PMA in Monocytes (% PMA control) ([1]; [cpd] 0.0005 μM, 50 min): 33.3%
Inhibition of H2O2 release induced by PMA in Monocytes (% PMA control) ([1]; [cpd] 0.001 μM, 30 min): 35.7%
Inhibition of H2O2 release induced by PMA in Monocytes (% PMA control) ([1]; [cpd] 0.001 μM, 40 min): 43.4%
Inhibition of H2O2 release induced by PMA in Monocytes (% PMA control) ([1]; [cpd] 0.001 μM, 50 min): 50.2%
inhibition of V-ATPase (in words) (V-ATPase): very potent and highly specific inhibitors
